{"source": "patent US20050228046A1", "about": "“Alkylamine as an antimicrobial agent in ophthalmic compositions” (ADVANCED MEDICAL OPTICS, INC., priority 2004, published 2005)", "key": {"[1]": {"tested_on": "Candida albicans, ATCC 10231", "assay": "Microbiology challenge test, log drop", "assay_type": "cell-based", "conditions": "for Log drop at 6 hour: Table 6: Myristylamine 0.001 % w/w", "experimental": "(§1) The following is the procedure by which various antimicrobial agents and solutions are tested for their ability to reduce microbial loads over short periods of time, typically 24 hours and less. The procedure is a basic microbiology challenge test, which involves the inoculation of test product aliquots with a known number of viable cells of several test organisms, and assay for the survivors at various time intervals. The results are used to calculate log drops at soak times and construct kill-curves (graphs of survivors versus time) if desired.\n(§2) Candida albicans, ATCC 10231, is one of five organisms specified per FDA and ISO/CLI tests for the testing of contact lens disinfectants (FDA Premarket Notification (510k) Guidance Document for Contact Lens Care Products, Appendix B, Apr. 1, 1997 and ISO/FDIS 14729: Ophthalmic optics-Contact lens care products-Microbiological requirements and test methods for products and regimens for hygienic management of contact lenses, January 2001). Contact lens disinfectants are also known as contact lens multi-purpose solutions when they are used for rinsing, cleaning, disinfection, storage and rewetting contact lenses. The five FDA/ISO specified test organisms are listed below: • Serratia marcescens, ATCC 13880 • Staphylococcus aureus, ATCC 6538 • Pseudomonas aeruginosa, ATCC 9027 • Candida albicans, ATCC 10231 • Fusarium solani, ATCC 36031\n(§3) The specific test procedure for testing antimicrobial activity against the five FDA/ISO specified test organisms is as follows (C. albicans is provided as a specific example): Test samples are sterile-filtered through a 0.22 micron sterile filter into sterile plastic high density polyethylene bottles or plastic flasks. A 10-mL aliquot of test sample is aseptically transferred into a sterile polystyrene plastic test tube. Sterile saline (0.90 w/v % NaCl) with 0.05 w/v % Polysorbate 80 (SS+TWEEN) is transferred into a separate control tube. All samples and control are stored at 20-25° C. throughout the duration of the test.\n(§4) Test cultures of Candida albicans, ATCC 10231 are prepared in the conventional manner. Candida albicans cultures are grown on agar slants from primary frozen, lyophilized or “Culti-loop®” cultures. Three mL of sterile 0.9% saline is used to gently dislodge culture growth from the agar surface. The resulting harvest is transferred to an appropriate screw cap test tube containing glass beads and vortexed for approximately one minute. The vortexed harvest is diluted as needed with sterile 0.9% saline to prepare the culture inoculum with a concentration of 1×10e8 CFU/mL. Fifty microliters of culture inoculum is added to 10.0 mL of each test sample and control, so that the final inoculum level is in the range of 1×10e5 to 1×10e6 CFU(colony forming units) per mL of Candida albicans, ATCC 10231. Each sample and control tube is vortexed briefly to disperse the inoculum. Contact time intervals for testing activity against Candida are typically 4 or 6 hours, to conform to the intended product label instructions for contact lens soak time.\n(§5) Aerobic Plate Count Methods are performed in order to quantitate test samples for their levels of survivors. At appropriate assay times, 0.5 mL well-vortexed aliquots are removed from sample tubes and added to glass test tubes containing 4.5 mL Letheen Neutralizing Broth media (Berton, Dickinson and Company, Sparks, Md.). After a previously determined, validated neutralizing time period, these samples are diluted 10-fold through serial dilutions using glass test tubes containing 4.5 mL Letheen Neutralizing Broth media. Aliquots of 0.1 mL are removed from each dilution tube and spread-plate applied to agar plates containing Sabouraud Dextrose Agar (SAB)(Berton, Dickinson and Company, Sparks, Md.). 10^1 to 10^4 CFU/mL survivor levels are quantitated. […]"}, "[2]": {"tested_on": "Fusarium solani, ATCC 36031", "assay": "Microbiology challenge test, log drop", "assay_type": "cell-based", "conditions": "for Log drop at 6 hour: Table 6: Myristylamine 0.001 % w/w", "experimental": "as §1, §2, §3, §4, §5"}, "[3]": {"tested_on": "Pseudomonas aeruginosa, ATCC 9027", "assay": "Microbiology challenge test, log drop", "assay_type": "cell-based", "conditions": "for Log drop at 6 hour: Table 6: Myristylamine 0.001 % w/w", "experimental": "as §1, §2, §3, §4, §5"}, "[4]": {"tested_on": "Serratia marcescens, ATCC 13880", "assay": "Microbiology challenge test, log drop", "assay_type": "cell-based", "conditions": "for Log drop at 6 hour: Table 6: Myristylamine 0.001 % w/w", "experimental": "as §1, §2, §3, §4, §5"}, "[5]": {"tested_on": "Staphylococcus aureus, ATCC 6538", "assay": "Microbiology challenge test, log drop", "assay_type": "cell-based", "conditions": "for Log drop at 6 hour: Table 6: Myristylamine 0.001 % w/w", "experimental": "as §1, §2, §3, §4, §5"}, "[6]": {"assay": "Contact lens uptake: content left in solution after shaking with lenses", "assay_type": "physicochemical", "conditions": "Myristylamine with TPGS 20 fold", "experimental": "The results in Table 9A show the remaining quaternary ammonium and tertiary amine content left in solution after a 15 ml-solution-2 lenses closed system has been shaken for 6 days at room temperature. […] The control which was run for this experiment, which includes the remaining ingredients in the solutions referenced in Table 9A are listed in Table 9B. As one of ordinary skill in the art would realize, the less quaternary ammonium or tertiary amine content remaining in solution after the shaking period, the higher the absorption by the lenses."}, "[7]": {"assay": "Solubility in aqueous media", "assay_type": "physicochemical"}, "[8]": {"conditions": "Table 2A: Myristylamine 0.0003 % w/w, Tetronic 1307 0.05, pH 7.8"}, "[9]": {"conditions": "Table 2A: Myristylamine 0.0005 % w/w, Tetronic 1307 0.05, pH 7.8"}, "[10]": {"conditions": "Table 3: Myristylamine 0.0005 w/v % with WSCP 0.001, NaClO2 0.01, NaCitrate 0.4, T1307 0.05"}, "[11]": {"conditions": "Table 3: Myristylamine 0.0005 w/v %, WSCP 0.0, NaClO2 0.0, NaCitrate 0.0, T1307 0.05"}, "[12]": {"conditions": "Table 4: Myristylamine 0.0003 w/v % with PHMB 0.00003, Tetronic 1107 0.05, pH 7.8"}, "[13]": {"conditions": "Table 4: Myristylamine 0.0003 w/v %, PHMB 0, Tetronic 1107 0.05, pH 7.8"}, "[14]": {"conditions": "Table 5: Myristylamine 0.0005 w/v % with Polyquaternium-1 0.001, NaCitrate 0.6, Tetronic 1304 0.05, pH 7.8"}, "[15]": {"conditions": "Tween 80 0.0074, Polyquaternium-1 0, pH 7.3, 6 hour"}, "[16]": {"conditions": "Tween 80 0.0074, with Polyquaternium-1 0.000075, pH 7.3, 6 hour"}}, "data": [{"smiles": "CCCCCCCCCCCCCCN", "note": "[Myristylamine]", "values": [{"measurement": "Log Drop", "setting": "[1]; [8]", "value": 3.67}, {"measurement": "Log Drop", "setting": "[1]; [9]", "value": 4.41}, {"measurement": "Log Drop", "setting": "[1]; [10]", "value": 2.95}, {"measurement": "Log Drop", "setting": "[1]; [11]", "value": 3.29}, {"measurement": "Log Drop", "setting": "[1]; [12]", "value": 3.31}, {"measurement": "Log Drop", "setting": "[1]; [13]", "value": 3.67}, {"measurement": "Log Drop", "setting": "[1]; [14]", "value": 4.52}, {"measurement": "Log drop at 6 hour", "setting": "[1]; [15]", "value": ">4.67"}, {"measurement": "Log drop at 6 hour", "setting": "[1]; [16]", "value": ">4.67"}, {"measurement": "antimicrobial activity against C. albicans", "setting": "[1]; result in words, Table 2A data", "value": "strong antimicrobial activity against C. albicans"}, {"measurement": "Log Drop", "setting": "[2]; [8]", "value": ">4.34"}, {"measurement": "Log Drop", "setting": "[2]; [9]", "value": ">4.34"}, {"measurement": "Log Drop", "setting": "[2]; [10]", "value": ">4.34"}, {"measurement": "Log Drop", "setting": "[2]; [11]", "value": ">4.34"}, {"measurement": "Log Drop", "setting": "[2]; [12]", "value": ">4.34"}, {"measurement": "Log Drop", "setting": "[2]; [13]", "value": ">4.34"}, {"measurement": "Log Drop", "setting": "[2]; [14]", "value": ">4.34"}, {"measurement": "Log drop at 6 hour", "setting": "[2]; [15]", "value": 3.73}, {"measurement": "Log drop at 6 hour", "setting": "[2]; [16]", "value": 3.12}, {"measurement": "Log Drop", "setting": "[3]; [8]", "value": ">4.63"}, {"measurement": "Log Drop", "setting": "[3]; [9]", "value": ">4.63"}, {"measurement": "Log Drop", "setting": "[3]; [10]", "value": ">4.63"}, {"measurement": "Log Drop", "setting": "[3]; [11]", "value": ">4.63"}, {"measurement": "Log Drop", "setting": "[3]; [12]", "value": ">4.63"}, {"measurement": "Log Drop", "setting": "[3]; [13]", "value": ">4.63"}, {"measurement": "Log Drop", "setting": "[3]; [14]", "value": ">4.63"}, {"measurement": "Log drop at 6 hour", "setting": "[3]; [15]", "value": ">4.58"}, {"measurement": "Log drop at 6 hour", "setting": "[3]; [16]", "value": ">4.58"}, {"measurement": "Log Drop", "setting": "[4]; [8]", "value": 1.18}, {"measurement": "Log Drop", "setting": "[4]; [9]", "value": 2.6}, {"measurement": "Log Drop", "setting": "[4]; [10]", "value": 3.1}, {"measurement": "Log Drop", "setting": "[4]; [11]", "value": 1.68}, {"measurement": "Log Drop", "setting": "[4]; [12]", "value": 3.46}, {"measurement": "Log Drop", "setting": "[4]; [13]", "value": 1.18}, {"measurement": "Log Drop", "setting": "[4]; [14]", "value": 3.64}, {"measurement": "Log drop at 6 hour", "setting": "[4]; [15]", "value": 1.19}, {"measurement": "Log drop at 6 hour", "setting": "[4]; [16]", "value": 3.12}, {"measurement": "Log Drop", "setting": "[5]; [8]", "value": 2.87}, {"measurement": "Log Drop", "setting": "[5]; [9]", "value": 4.8}, {"measurement": "Log Drop", "setting": "[5]; [10]", "value": 3.74}, {"measurement": "Log Drop", "setting": "[5]; [11]", "value": 2.93}, {"measurement": "Log Drop", "setting": "[5]; [12]", "value": 4.21}, {"measurement": "Log Drop", "setting": "[5]; [13]", "value": 2.87}, {"measurement": "Log Drop", "setting": "[5]; [14]", "value": 4.69}, {"measurement": "Log drop at 6 hour", "setting": "[5]; [15]", "value": 1.04}, {"measurement": "Log drop at 6 hour", "setting": "[5]; [16]", "value": 3.21}, {"measurement": "remaining content left in solution, Acuvue", "setting": "[6]; 15 ml solution, 2 Acuvue lenses, closed system shaken 6 days at room temperature", "value": 34.1, "unit": "ppm"}, {"measurement": "remaining content left in solution, Purevision", "setting": "[6]; 15 ml solution, 2 Purevision lenses, closed system shaken 6 days at room temperature", "value": 13.0, "unit": "ppm"}, {"measurement": "remaining content left in solution, Without Lens", "setting": "[6]; 15 ml system without lenses, shaken 6 days at room temperature", "value": 37.9, "unit": "ppm"}, {"measurement": "solubility in aqueous solution with acid and surfactant", "setting": "[7]; acid and surfactant containing an alkyl chain coexist, solution pH below 6", "value": "may be dissolved in an aqueous solution"}, {"measurement": "solubility in acid", "setting": "[7]; ambient temperature, solution pH below 2", "value": "insoluble in acid at ambient temperature"}, {"measurement": "solubility in water", "setting": "[7]; water or basic solution", "value": "does not dissolve in water or in a basic solution"}]}]}
